Legend:
[1] = GBIG·(HCO3)2(H2O)2(s) precipitation upon contacting with CO2(g); type: physicochemical; settings: CO2 gas 0.5 psig, 30 minutes
Method: GBIG·(HCO3)2(H2O)2(s) Precipitation Upon Contacting with CO2(g)
Pour approximately 5 ml of the synthesized chemical solution into the polycarbonate reservoir. Open the CO2 gas cylinder valve and take note of the pressure. Open the delivery valve of the regulator. Increase the delivery pressure to 0.5 psig by turning the regulator knob. Open the 3-way valve connected to the bottom of the polycarbonate reservoir to initiate CO2 gas flow into the reservoir. Watch for precipitation in the liquid through the transparent polycarbonate reservoir wall for 30 minutes. For temperature dependence testing: Samples were placed in ovens at temperature of interest for 30 minutes, then used in the procedure detailed above.
Results for the precipitation test for varying salinity and glyoxal-bis(iminoguanidine) (GBIG) concentration are shown in Tables 2-4 and FIGS. 3A-3C. Table 2 and FIG. 3A show results for 1 wt % NaCl and 0.397 wt % GBIG. Table 3 and FIG. 3B show results for 0.1 wt % NaCl and 0.243 wt % GBIG. Table 4 and FIG. 3C show results for 20 wt % NaCl and 0.064 wt % GBIG.

[2] = Solubility limit (Ksp) of GBIG in NaCl brine; type: physicochemical; settings: 25° C., 20 minutes of sonication
Method: Solubility limit Ksp at 25° C. and 20 minutes of sonication. Solubility limit strongly depends on salinity: nonlinear dependence.

N=C(N)NN=CC=NNC(=N)N [GBIG, glyoxal-bis(iminoguanidine)]
Precipitation? ([1]; 0.1 wt % NaCl and 0.243 wt % GBIG, 25° C.): Yes
Precipitation? ([1]; 0.1 wt % NaCl and 0.243 wt % GBIG, 65° C.): Yes
Precipitation? ([1]; 0.1 wt % NaCl and 0.243 wt % GBIG, 80° C.): Yes
Precipitation? ([1]; 0.1 wt % NaCl and 0.243 wt % GBIG, 100° C.): Yes
Precipitation? ([1]; 0.1 wt % NaCl and 0.243 wt % GBIG, 115° C.): Yes
Precipitation? ([1]; 1 wt % NaCl and 0.397 wt % GBIG, 25° C.): Yes
Precipitation? ([1]; 1 wt % NaCl and 0.397 wt % GBIG, 65° C.): Yes
Precipitation? ([1]; 1 wt % NaCl and 0.397 wt % GBIG, 80° C.): Yes
Precipitation? ([1]; 1 wt % NaCl and 0.397 wt % GBIG, 100° C.): Yes
Precipitation? ([1]; 1 wt % NaCl and 0.397 wt % GBIG, 115° C.): Yes
Precipitation? ([1]; 20 wt % NaCl and 0.064 wt % GBIG, 25° C.): Yes
Precipitation? ([1]; 20 wt % NaCl and 0.064 wt % GBIG, 65° C.): Yes
Precipitation? ([1]; 20 wt % NaCl and 0.064 wt % GBIG, 80° C.): Yes
Precipitation? ([1]; 20 wt % NaCl and 0.064 wt % GBIG, 100° C.): Yes
Precipitation? ([1]; 20 wt % NaCl and 0.064 wt % GBIG, 115° C.): Yes
GBIG Ksp ([2]; 0.1 wt % NaCl): 0.0143
Solubility limit, GBIG (wt %) ([2]; 0.1 wt % NaCl): 0.243 wt %
GBIG Ksp ([2]; 1 wt % NaCl): 0.0234
Solubility limit, GBIG (wt %) ([2]; 1 wt % NaCl): 0.397 wt %
GBIG Ksp ([2]; 20 wt % NaCl): 0.0038
Solubility limit, GBIG (wt %) ([2]; 20 wt % NaCl): 0.064 wt %

Source: US12410355B2, “Compositions and methods for carbon dioxide solidification” (CHEVRON U.S.A. INC., priority 2022, dated 2025)
